The text below walks through data of patent US4221781A, “Synergistic penicillin-cephalosporin compositions and methods” (priority 1971, dated 1980).

Assay [1] concerns clinically isolated coliform bacterium. Nature of the assay: Example 5: in vitro M.I.C. of IV, various penicillins and 1:1 combinations. It is filed as cell-based. The procedure: (§1) Tryptose phosphate broth, containing the appropriate concentrations of the compounds or of the combination of them, was inoculated with 0.5×10^4 -5×10^4 organisms of the various microorganisms tested and incubated overnight at 37° C. Minimum inhibitory concentrations (M.I.C.) were taken as the concentrations of the compounds or of the combination at which no visible growth occurred.
Using the same technique as described in Example 1 the in vitro activity of 6[(piperidyl-1)-methyleneamino]-penicillianic acid (IV), of various penicillins, and of 1:1 combinations of IV with these penicillins, was determined against a clinically isolated coliform bacterium.

Assay [2] relates to Klebsiella-Enterobacter (strain 4/71). The assay is described as follows: Example 10: in vitro M.I.C. of II, cephalosporins and 1:1 combinations. The class given is cell-based. The procedure: as §1
Using the same technique as described in Example 1 the in vitro activity of 6-[(hexahydro-1H-azepin-1-yl)methyleneamino]penicillanic acid (II), of various cephalosporins previously mentioned in this specification, and of 1:1 combinations of II with these cephalosporins was determined against a clinically isolated strain of Klebsiella-Enterobacter (strain 4/71)

For assay [3], the system named is Proteus (Proteus Mirabilis I 190). Nature of the assay: Example 11: in vitro M.I.C. of II, cephalosporins and 1:1 combinations. The class given is cell-based. The procedure:
as §1
Using the same technique as described in Example 1 the in vitro activity of 6-[(hexahydro-1H-azepin-1-yl)methyleneamino]penicillanic acid (II), of various cephalosporins and of 1:1 combinations of II with these cephalosporins was determined against a clinically isolated strain of Proteus (Proteus Mirabilis I 190).

Assay [4] has as its system Coliform. Nature of the assay: Example 1: in vitro M.I.C., serial dilution test, coliforms. The class given is cell-based. The note with it: 37° C overnight. The procedure:
as §1

The next assay deals with Proteus mirabilis. The assay is described as follows: Example 1: in vitro M.I.C., serial dilution test, Proteus mirabilis. The class given is cell-based. Particulars: Proteus mirabilis strain 35895; 37° C overnight. The procedure: as §1
The next assay has as its system Proteus vulgaris. The assay is described as follows: Example 1: in vitro M.I.C., serial dilution test, Proteus vulgaris. The class given is cell-based. The note with it: 37° C overnight, read-out: M.I.C. The procedure: as §1
The subject of assay [5] is Proteus. Nature of the assay: Example 1: in vitro M.I.C., serial dilution test, Proteus. The class given is cell-based. The note with it: 37° C overnight, read-out: M.I.C. The procedure: as §1
Assay [6] concerns E.coli III. Nature of the assay: Example 3: in vivo activity, mean curative dose in mice infected with E.coli III. The arrangement: species or system female NMRI white mice. Particulars: Escherichia coli, sc, 96 h, subcutaneous, read-out: CD50 (mean curative dose). The procedure:
The number of deaths in the various groups were recorded after 96 hours and the mean curative doses (CD50) were calculated. (In the table, LD50 gives the dilution of an overnight culture of the organism causing a 50% death rate in animals receiving no therapy; the number of LD50 -doses records the severity of the infections given to the animals.)

For assay [7], the system named is clinically isolated coliform. The assay is described as follows: Example 7: emergence of resistance, subculturing by serial twofold broth dilution. The class given is cell-based. The procedure:
Subculturing using a serial twofold broth dilution technique was performed with 6-(D-α-aminophenylacetamido)-penicillanic acid (I), 6-[(hexahydro-1H-azepin-1-yl)methyleneamino]penicillanic acid (II), and a 1:1 combination of I and II. The strain used was a clinically isolated coliform. As inocula were used bacteria from the tube with the highest concentration of compound still permitting visible growth to the naked eye after incubation at 37° C. overnight. The following increases in MIC values were noted.
On the technique in general: Broth dilution looks for growth in wells or tubes with falling amounts of substance.

The subject of assay [8] is Coliform. The assay is described as follows: Example 4: in vitro M.I.C., serial dilution test, coliforms. It is filed as cell-based. The procedure: as §1
In assay [9] the test system is Proteus. Nature of the assay: Example 4: in vitro M.I.C., serial dilution test, Proteus. The class given is cell-based. The note with it: read-out: M.I.C. The procedure:
as §1

For assay [10], the system named is Klebsiella-Enterobacter. Nature of the assay: Example 4: in vitro M.I.C., serial dilution test, Klebsiella-Enterobacter. It is filed as cell-based. Particulars: read-out: M.I.C. The procedure: as §1
For assay [11], the system named is E.coli III. The assay is described as follows: Example 6: emergence of resistance, subculturing by serial twofold broth dilution. The class given is cell-based. The note with it: Escherichia coli. The procedure: Subculturing using a serial twofold broth dilution technique was performed with 6-(D-α-amino-phenylacetamido)-penicillanic acid (I), 6-[(piperidyl-1)methyleneamino]penicillanic acid (IV) and a 1:1 combination of I+IV. As inocula were used bacteria from the tube with the highest concentration of compound still permitting visible growth to the naked eye after incubation at 37° C. overnight. The following increases in MIC-values were noted.

The next assay relates to Coliforma. The assay is described as follows: Example 9: in vitro MIC, serial dilution test, Coliforma. The class given is cell-based. The procedure: as §1
(§2) Using the technique described in Example 1 the in vitro effect of combinations of 6-(D-α-aminophenylacetamido)-penicillanic acid (I) and 6-[(N,N-diethylformamidino)-N'-amino]penicillanic acid (VII) in the ratios 1:1, 1:2 and 2:1 against clinically isolated strains of Coliforma, Klebsiella-Enterobacter and Proteus was determined in serial dilution tests.

Assay [12] has as its system Klebsiella-Enterobacter. The assay is described as follows: Example 9: in vitro MIC, serial dilution test, Klebsiella-Enterobacter. It is filed as cell-based. The note with it: read-out: MIC. The procedure:
as §1, §2

The subject of assay [13] is Proteus. The assay is described as follows: Example 9: in vitro MIC, serial dilution test, Proteus. The class given is cell-based. The note with it: Proteus strain 9; read-out: MIC. The procedure: as §1, §2
Where [14] appears, read: Klebsiella-Enterobacter strain 4/71, read-out: M.I.C.
Setting [15] is: Proteus Mirabilis I 190, read-out: M.I.C.

Molecules are shown by their SMILES. Like-named read-outs stand apart in the source and are kept apart here.

As for `CC1(C)S[C@@H]2[C@H](NC(=O)[C@H](N=[N+]=[N-])c3ccccc3)C(=O)N2[C@H]1C(=O)O` [6-(D-α-azidophenylacetamido)penicillanic acid], in assay [1], the MIC was found to be 50 µg/mL.

With `CC(=O)OCC1=C(C(=O)O)N2C(=O)[C@@H](NC(=O)CC#N)[C@H]2SC1` [Cephacetrile], the values for the MIC in assay [2] (setting [14]) and in [3] (setting [15]) were 50 µg/mL and 12.5 µg/mL, respectively.

With `CC1=C(C(=O)O)N2C(=O)[C@@H](NC(=O)[C@H](N)c3ccccc3)[C@H]2SC1` [Cephalexine], the figures for the MIC in assay [2] (setting [14]) and in assay [3] (setting [15]) were 50 µg/mL and 25 µg/mL, respectively.

As for `O=C(Cc1cccs1)N[C@@H]1C(=O)N2C(C(=O)[O-])=C(C[n+]3ccccc3)CS[C@H]12` [Cephaloridine], the MIC in [2] (setting [14]) came out at 25 µg/mL; in assay [3] (setting [15]) it was 6.25 µg/mL.

As for `Cc1nnc(SCC2=C(C(=O)O)N3C(=O)[C@@H](NC(=O)Cn4cnnn4)[C@H]3SC2)s1` [Cephazoline], the MIC in assay [2] (setting [14]) was 12.5 µg/mL; in assay [3] (setting [15]), 6.25 µg/mL.

`CC(=O)OCC1=C(C(=O)O)N2C(=O)C(NC(=O)Cc3ccccc3)C2SC1` (stereo not shown) [EPC 807 2/b]: the results for the MIC in assay [2] (setting [14]) and in [3] (setting [15]) were greater than 100 µg/mL and 25 µg/mL, respectively.

For `CC(=O)OCC1=C(C(=O)O)N2C(=O)C(NC(=O)Cc3cccc(Cl)c3)C2SC1` (stereo not shown) [EPC 820/1b], the MIC in assay [2] (setting [14]) was greater than 100 µg/mL; in [3] (setting [15]), 50 µg/mL.

Regarding `[N-]=[N+]=NCC1=C(C(=O)O)N2C(=O)C(NC(=O)Cc3cccs3)C2SC1` (stereo not shown) [EPC 821/4II], the MIC in assay [2] (setting [14]) stood at 100 µg/mL; in assay [3] (setting [15]), 12.5 µg/mL.

As to `CC(=O)OCC1=C(C(=O)O)N2C(=O)C(NC(=O)CSc3ccccc3)C2SC1` (stereo not shown) [EPC 825/1], the MIC in [2] (setting [14]) was greater than 100 µg/mL; in [3] (setting [15]), 25 µg/mL.

In the case of `CC1(C)S[C@@H]2[C@H](N=CN3CCCCCC3)C(=O)N2[C@H]1C(=O)O` [II, 6-[(hexahydro-1H-azepin-1-yl)methyleneamino]penicillanic acid], the MIC was 12.5 µg/mL in the assay on Coliform [4] (Coliform strain 3/70); 0.78 µg/mL in the assay on Coliform [4] (Coliform strain 17/70); 0.78 µg/mL in the assay on Proteus mirabilis; 0.19 µg/mL in the assay on Proteus vulgaris (Proteus vulgaris A); 1.56 µg/mL with Proteus vulgaris (Proteus vulgaris B); 3.12 µg/mL in the assay with Proteus [5] (Proteus strain 12/70). In addition, the MIC with Proteus [5] (Proteus strain 13/70) is 3.12 µg/mL; in the assay on Proteus [5] (Proteus strain 20/70) it was greater than 100 µg/mL; in assay [7] (passage 0), 0.39 µg/mL; in assay [7] (passage 1), 6.25 µg/mL; in [7] (passage 2), 25 µg/mL; in [7] (passage 3), 25 µg/mL. Moreover, the MIC in [7] (passage 4) was 25 µg/mL; in assay [7] (passage 5) it was 25 µg/mL; in assay [7] (passage 7), 25 µg/mL; in assay [7] (passage 8) it was 25 µg/mL; in [2] (setting [14]), greater than 100 µg/mL; in assay [3] (setting [15]) it was greater than 100 µg/mL. The ED50 in the assay with E.coli III [6] (LD50 1.5·10^-3, 6.6 LD50-doses given) is 2 mg/kg; in the assay with E.coli III [6] (LD50 8.1·10^-4, 1.2·10^4 LD50-doses given), greater than 500 mg/kg.

For the molecule `CC1(C)S[C@@H]2[C@H](N=CN3CCCCC3)C(=O)N2[C@H]1C(=O)O` [IV, 6-[(piperidyl-1)-methyleneamino]penicillanic acid], the MIC in the assay on Coliform [8] (Coliform strain 7/70) was determined as 1.56 µg/mL; in the assay on Coliform [8] (Coliform strain 16/70), 1.56 µg/mL; in the assay on Coliform [8] (Coliform strain 17/70) it was 1.56 µg/mL; in the assay on Proteus [9] (Proteus strain 4/70), 25 µg/mL; with Proteus [9] (Proteus strain 6/70), 3.12 µg/mL; in the assay on Proteus [9] (Proteus strain 7/70) it was 50 µg/mL. The MIC in the assay with Proteus [9] (Proteus strain 9/70) is 100 µg/mL; in the assay with Proteus [9] (Proteus strain 10/70), 25 µg/mL; in the assay on Klebsiella-Enterobacter [10] (Klebsiella-Enterobacter strain 1/70), greater than 100 µg/mL; with Klebsiella-Enterobacter [10] (Klebsiella-Enterobacter strain 2/70) it was 12.5 µg/mL; in the assay with Klebsiella-Enterobacter [10] (Klebsiella-Enterobacter strain 5/70) it was greater than 100 µg/mL; with Klebsiella-Enterobacter [10] (Klebsiella-Enterobacter strain 7/70), greater than 100 µg/mL. The MIC with Klebsiella-Enterobacter [10] (Klebsiella-Enterobacter strain 9/70) was 3.12 µg/mL; in the assay on Klebsiella-Enterobacter [10] (Klebsiella-Enterobacter strain 10/70), greater than 100 µg/mL; with Klebsiella-Enterobacter [10] (Klebsiella-Enterobacter strain 431), greater than 100 µg/mL; in assay [1], 6.25 µg/mL; with E.coli III [11] (passage 0) it was 0.78 µg/mL; in the assay on E.coli III [11] (passage 1), 6.25 µg/mL. Further, the MIC was 6.28 µg/mL with E.coli III [11] (passage 2); 25 µg/mL in the assay with E.coli III [11] (passage 3); 25 µg/mL in the assay with E.coli III [11] (passage 4); 25 µg/mL in the assay with E.coli III [11] (passage 5); 25 µg/mL in the assay with E.coli III [11] (passage 6).

Take `CC(=O)OCC1=C(C(=O)O)N2C(=O)[C@@H](NC(=O)Cc3cccs3)[C@H]2SC1` [VI, cephalotin]: the figures for the MIC in assay [2] and in assay [3] were 50 µg/mL and 3.12 µg/mL, respectively.

`CCN(C=NC1C(=O)N2C1SC(C)(C)C2C(=O)O)CC` (stereo not shown) [VII, 6-[(N,N-diethylformamidino)-N'-amino]penicillanic acid]: the MIC with Coliforma (Coliforma strain 1) is 3.12 µg/mL; in the assay with Coliforma (Coliforma strain 4) it was 3.12 µg/mL; with Coliforma (Coliforma strain 7) it was 6.25 µg/mL; in the assay with Coliforma (Coliforma strain 16) it was 6.25 µg/mL; in the assay on Klebsiella-Enterobacter [12] (Klebsiella-Enterobacter strain 1) it was greater than 100 µg/mL; with Klebsiella-Enterobacter [12] (Klebsiella-Enterobacter strain 5), greater than 100 µg/mL. In addition, the MIC in the assay with Klebsiella-Enterobacter [12] (Klebsiella-Enterobacter strain 7) was greater than 100 µg/mL; in the assay with Klebsiella-Enterobacter [12] (Klebsiella-Enterobacter strain 8), 12.5 µg/mL; in the assay with Proteus [13], 100 µg/mL.

Regarding `CC1(C)S[C@@H]2[C@H](NC(=O)Cc3ccccc3)C(=O)N2[C@H]1C(=O)O` [benzylpenicillin], the MIC in assay [1] was determined as 25 µg/mL.

For the molecule `CC1(C)S[C@@H]2[C@H](NC(=O)C(C(=O)O)c3ccccc3)C(=O)N2[C@H]1C(=O)O` (stereo partly drawn) [α-carboxybenzylpenicillin], in [1], the MIC is 12.5 µg/mL.
